Assay results from paper PMC6438990 (Cellular and Molecular Gastroenterology and Hepatology, 2019).

Molecular target: T1, SLC26A3 (DRA, down-regulated in adenoma) (Homo sapiens, UniProt P40879)
T1 sequence (P40879 1-764): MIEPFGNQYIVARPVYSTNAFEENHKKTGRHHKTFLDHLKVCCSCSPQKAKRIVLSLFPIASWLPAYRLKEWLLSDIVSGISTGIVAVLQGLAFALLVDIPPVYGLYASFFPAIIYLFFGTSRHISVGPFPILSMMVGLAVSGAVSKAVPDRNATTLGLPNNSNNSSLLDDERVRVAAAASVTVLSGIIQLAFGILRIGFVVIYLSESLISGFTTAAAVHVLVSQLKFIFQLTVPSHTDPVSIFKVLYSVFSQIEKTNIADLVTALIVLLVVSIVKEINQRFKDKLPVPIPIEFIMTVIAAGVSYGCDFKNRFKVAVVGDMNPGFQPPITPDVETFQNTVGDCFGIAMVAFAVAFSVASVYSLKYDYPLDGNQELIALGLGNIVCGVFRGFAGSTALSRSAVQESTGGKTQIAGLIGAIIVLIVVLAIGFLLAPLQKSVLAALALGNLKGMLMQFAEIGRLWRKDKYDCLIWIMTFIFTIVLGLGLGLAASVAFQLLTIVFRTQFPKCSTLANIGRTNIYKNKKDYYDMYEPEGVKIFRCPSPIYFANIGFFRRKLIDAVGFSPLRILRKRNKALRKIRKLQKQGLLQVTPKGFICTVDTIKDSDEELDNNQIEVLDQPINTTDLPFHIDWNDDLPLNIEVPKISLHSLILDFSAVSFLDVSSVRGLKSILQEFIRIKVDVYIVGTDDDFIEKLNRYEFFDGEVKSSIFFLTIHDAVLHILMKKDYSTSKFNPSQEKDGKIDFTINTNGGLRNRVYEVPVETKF
Assay type: cell-based

## Cc1c(CC(=O)O)c(=O)oc2c(C)c(OCc3cccc(Br)c3)ccc12 [DRAinh-A250]
  IC50: 0.12 ± 0.04 µM
